# Laboratory results published in BindingDB's records for doi:10.1016/j.bmcl.2017.11.009 (De Montfort University, 2017).
# pEC50: −log10 of the molar value.
# Key:
# [1] = Inhibition of recombinant human CYP1B1 expressed in HEK293 cells assessed as potentiation of cisplatin-induced cytotoxicity by measuring cisplatin EC50 by MTT assay (Rvb = 65.01 +/- 7.01 uM)
# [2] = Inhibition of recombinant human CYP1A1 expressed in HEK293 cells assessed as reduction in benzo(a)pyrene-induced toxicity by measuring B[a]P EC50 at 2 times IC50 by MTT assay (Rvb = 0.8 +/- 0.14 uM)
smiles,measurement,setting,value
COc1ccc(/C=C/C(=O)c2ccncc2)c(OC)c1OC,pEC50,[1],5.00
COc1cc(/C=C/C(=O)c2ccncc2)cc(OC)c1,pEC50,[1],5.00
CCOc1cc(/C=C/C(=O)c2ccncc2)cc(OC)c1OCC,pEC50,[2],4.85
CCOc1cc(/C=C/C(=O)c2ccncc2)cc(OC)c1OC,pEC50,[2],4.85
COc1cc(/C=C/C(=O)c2ccncc2)cc(OC)c1OC,pEC50,[2],4.85
COc1ccccc1/C=C/C(=O)c1ccncc1,pEC50,[1],5.00
COc1cccc(/C=C/C(=O)c2ccncc2)c1,pEC50,[1],5.00
CCOc1cc(/C=C/C(=O)c2ccncc2)cc(OCC)c1OCC,pEC50,[2],4.85
